From patent publication US12673975B2, “Cyclic peptide, cell scaffold material, cell separating material, and medium” (FUJIFILM Corporation, priority 2019, dated 2026)
pKd: −log10 of the molar value. Where two headings read alike, the source gives them in different places. Starred links: 1 amine or outer side, 2 acyl side, 3 side chain; linkers in the order of their positions; H or OH if unused. Positions of bridges follow the written chain, without caps; N, C: chain ends. Non-standard residues stand in square brackets, D forms with d. Residues, ends and D or L forms follow the SMILES beside them. Pen = CC(C)(S)[C@H](N)C(=O)O; hCys = N[C@@H](CCS)C(=O)O; Dab = NCC[C@H](N)C(=O)O; Dap = NC[C@H](N)C(=O)O; X1 = O=C(C[*:2])[*:1]; X2 = O=C(C[*:1])[*:2]

Columns and labels:
human integrin αvβ5 = human integrin αvβ5 (Homo sapiens, UniProt P06756+P18084); experiment: Evaluation of integrin binding property (surface plasmon resonance, Biacore 3000, immobilized cyclic peptide)
Procedure: A commercially available CMS (a carboxymethyl dextran introduction type, manufactured by GE Healthcare) sensor chip was set in Biacore 3000, which is a surface plasmon resonance apparatus manufactured by GE Healthcare, the sensor was stabilized at a flow rate of 10 μL/min of a HEPES (4-(2-hydroxyethyl)-1-piperazineethanesulfonic acid) buffer solution (20 mM HEPES-HCl, 150 mM NaCl, pH 7.4) for surface plasmon resonance (SPR), and 70 μL of a mixed aqueous solution of 0.2 M 1-(3-dimethylaminopropyl)-3-ethylcarbodiimide (EDC) and 0.04 M N-hydroxysuccinimide (NHS) was added thereto. Here, the concentration unit M represents mol/L, and the same applies hereinafter. Then, 20 μL of the sample solution of each of the above cyclic peptides diluted to 0.2 g/L with the HEPES buffer solution was supplied to the sensor chip, blocking treatment was subsequently carried out with an ethanolamine solution, and washing was carried out with a sodium hydroxide aqueous solution, whereby immobilization was carried out. However, only for the cyclic peptides 125, 126, and 127, in which the number of lysine residues having an amino group as the immobilizing functional group was zero, the amount of the sample solution to be supplied to the sensor chip was set to 500 μL instead of 20 μL. Further, 70 μL of the mixed aqueous solution of 0.2 M EDC and 0.04 M NHS was added to another flow channel of the same sensor chip without immobilizing the sample, and then blocking treatment and washing treatment were carried out. Hereinafter, the obtained immobilization-treated sensor chip is referred to as an “immobilization-treated sensor chip A”.
After adding human integrin αvβ5 for 10 minutes at 25° C., which was diluted to 30 nM using a HEPES buffer solution to which magnesium chloride was added to 5 mM, in each flow channel of the immobilization-treated sensor chip A prepared in (1) above, the same HEPES buffer solution (containing 5 mM magnesium chloride) was allowed to flow as a running buffer for 30 minutes, and measurement was carried out with Biacore 3000. Then, a regeneration treatment of removing human integrin αvβ5 was carried out by allowing a 0.5 M EDTA aqueous solution to flow through each flow channel for 10 minutes. Further, the above-described measurement process consisting of adding integrin for 10 minutes, allowing a running buffer to flow for 30 minutes, carrying out measurement with Biacore 3000, and carrying out regeneration treatment with 0.5 M EDTA aqueous solution was carried out in the same manner for 100 nM human integrin αvβ5, 300 nM human integrin αvβ5, and 1,000 nM human integrin αvβ5. Dissociation constant between the cyclic peptide and human integrin αvβ5 was calculated from the difference between the value measured by Biacore 3000 in the flow channel immobilized with the cyclic peptide and the value measured by Biacore 3000 in the flow channel unimmobilized with the cyclic peptide, in a case where each concentration of human integrin αvβ5 was allowed to flow, and the integrin binding property was evaluated according to the following evaluation standards. It is preferable that the evaluation result satisfies the evaluation standard A, B, or C.

[1] = Evaluation of molecule stability (alkali treatment, residual rate by LC/MS); type: physicochemical; conditions: for Stability (molecule stability, residual rate of the cyclic peptide rank): alkali treatment, residual rate by LC/MS; for Performance evaluation: Stability (residual rate of cyclic peptide after alkali treatment): 500 μM peptide aqueous solution plus equivalent of 1 M sodium hydroxide, 15° C., 3 hours, LC/MS peak area
Procedure: The molecule stability of the cyclic peptide was evaluated by analyzing the alkali-treated cyclic peptide aqueous solution by liquid chromatography mass spectroscopy (LC/MS).
The alkali treatment was carried out by the following method. A 500 μM cyclic peptide aqueous solution was prepared, an equivalent of 1 M sodium hydroxide aqueous solution was added to this aqueous solution, and the resultant mixture was incubated at 15° C. for 3 hours to obtain an alkali-treated cyclic peptide aqueous solution. The cyclic peptide residual rate was calculated by setting the total area of all peaks of the cyclic peptide before alkali treatment in LC/MS to 100% and determining the proportion of the total area of all peaks in LC/MS of the alkali-treated cyclic peptide aqueous solution, and the molecule stability was evaluated according to the following evaluation standards. It is preferable that the evaluation result satisfies the evaluation standard A, B, or C.
The conditions of the LC/MS used for the evaluation of molecule stability were set as follows. • LC apparatus: Prominence series (pump, column oven, autosampler, detector) (manufactured by Shimadzu Corporation) • MS detector: LC/MS2010EV (manufactured by Shimadzu Corporation) • Column: Cadenza CD-C18, inner diameter 2.0 mm×length 250 mm, particle size: 3 μm (manufactured by Imtakt Corporation) • Eluent A: a solution (pH 3) containing 10 mM ammonium formate as a solute, where the solvent is 100% water. • Eluent B: a solution (pH 3) containing 10 mM ammonium formate as a solute, where the solvent is acetonitrile/water=90/10. • Flow rate: 0.2 mL/min • Injection volume: 4 μL • Gradient: 0% to 30%: Eluent B (0 to 30 minutes), 100%: Eluent B (30 to 40 minutes), 0%: Eluent B (40 to 60 minutes) • Column temperature: 45° C. • Ionization method: electrospray ionization (ESI) positive, ESI negative

[2] = surface plasmon resonance, immobilized cyclic peptide, human integrin αvβ5, read-out: Binding activity (integrin binding property, dissociation constant rank)
[3] = SPR, 25° C., HEPES buffer with 5 mM magnesium chloride, integrin 30-1,000 nM, read-out: Performance evaluation: Binding activity (dissociation constant between the cyclic peptide and human integrin αvβ5)

human integrin αvβ5, sequence (P06756 31-1048): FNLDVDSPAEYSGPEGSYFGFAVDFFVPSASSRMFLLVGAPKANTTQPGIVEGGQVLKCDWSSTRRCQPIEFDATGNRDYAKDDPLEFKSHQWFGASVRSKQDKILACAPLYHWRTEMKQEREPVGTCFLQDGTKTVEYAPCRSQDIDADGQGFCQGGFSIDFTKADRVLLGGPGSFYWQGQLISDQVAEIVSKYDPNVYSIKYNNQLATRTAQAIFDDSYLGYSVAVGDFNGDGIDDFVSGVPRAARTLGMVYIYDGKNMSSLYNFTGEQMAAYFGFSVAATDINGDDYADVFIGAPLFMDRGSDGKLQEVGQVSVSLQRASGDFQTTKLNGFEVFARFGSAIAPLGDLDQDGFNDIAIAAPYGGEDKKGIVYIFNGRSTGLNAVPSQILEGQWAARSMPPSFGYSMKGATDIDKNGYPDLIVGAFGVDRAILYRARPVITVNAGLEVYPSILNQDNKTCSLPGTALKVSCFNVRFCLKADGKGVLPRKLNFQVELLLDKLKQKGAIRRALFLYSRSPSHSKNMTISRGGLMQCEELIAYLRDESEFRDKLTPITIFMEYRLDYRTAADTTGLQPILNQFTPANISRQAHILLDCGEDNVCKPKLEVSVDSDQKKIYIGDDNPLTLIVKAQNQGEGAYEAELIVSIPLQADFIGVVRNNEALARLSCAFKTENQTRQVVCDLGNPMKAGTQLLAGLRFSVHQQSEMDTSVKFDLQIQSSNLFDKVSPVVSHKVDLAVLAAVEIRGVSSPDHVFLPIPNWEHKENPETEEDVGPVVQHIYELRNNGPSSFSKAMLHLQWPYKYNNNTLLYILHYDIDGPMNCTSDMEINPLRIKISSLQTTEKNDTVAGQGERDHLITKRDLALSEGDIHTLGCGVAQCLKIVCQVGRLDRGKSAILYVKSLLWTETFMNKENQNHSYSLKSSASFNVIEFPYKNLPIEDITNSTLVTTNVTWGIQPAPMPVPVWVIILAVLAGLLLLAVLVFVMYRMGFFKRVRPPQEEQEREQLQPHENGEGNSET
human integrin αvβ5, sequence (P18084 24-799): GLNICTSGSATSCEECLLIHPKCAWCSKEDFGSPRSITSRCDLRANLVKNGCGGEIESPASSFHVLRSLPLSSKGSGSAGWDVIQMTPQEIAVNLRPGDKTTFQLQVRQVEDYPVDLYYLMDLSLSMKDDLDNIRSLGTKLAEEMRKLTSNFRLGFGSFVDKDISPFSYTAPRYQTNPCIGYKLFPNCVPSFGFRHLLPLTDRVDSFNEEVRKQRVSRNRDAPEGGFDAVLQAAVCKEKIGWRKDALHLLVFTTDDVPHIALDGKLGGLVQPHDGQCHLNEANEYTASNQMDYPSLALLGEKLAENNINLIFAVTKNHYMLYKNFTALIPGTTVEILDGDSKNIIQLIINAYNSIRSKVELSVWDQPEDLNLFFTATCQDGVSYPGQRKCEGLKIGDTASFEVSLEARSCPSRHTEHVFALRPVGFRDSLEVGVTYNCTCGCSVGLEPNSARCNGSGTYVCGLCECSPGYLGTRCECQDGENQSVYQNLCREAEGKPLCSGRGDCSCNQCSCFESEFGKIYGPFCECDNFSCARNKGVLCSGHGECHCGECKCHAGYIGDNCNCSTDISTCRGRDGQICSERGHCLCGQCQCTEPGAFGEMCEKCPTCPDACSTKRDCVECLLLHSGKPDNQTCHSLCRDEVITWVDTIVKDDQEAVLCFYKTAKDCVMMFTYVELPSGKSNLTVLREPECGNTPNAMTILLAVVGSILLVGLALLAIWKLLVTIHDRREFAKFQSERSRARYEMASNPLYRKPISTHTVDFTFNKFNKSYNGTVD

pKd (human integrin αvβ5; [2]) | pKd (human integrin αvβ5; [3]) | SMILES | Stability (molecule stability, residual rate of the cyclic peptide rank) [1] | Performance evaluation: Stability (residual rate of cyclic peptide after alkali treatment) [1]
> 7.30 |  | CC[C@H](C)[C@@H]1NC(=O)[C@@H](NC(=O)CNC(=O)[C@H](CCCCN)NC(=O)[C@H](CCCCN)NC(=O)[C@@H](N)CCCCN)CNC(=O)CSC(C)(C)[C@@H](C(=O)N[C@@H](C)C(=O)O)NC(=O)[C@H](CCCNC(=N)N)NC(=O)[C@H](Cc2ccccc2)NC(=O)[C@H]([C@@H](C)O)NC(=O)[C@H](CC(=O)O)NC(=O)CNC(=O)[C@H](CCCNC(=N)N)NC(=O)[C@@H]2CCCN2C1=O [Cyclic peptide 132, KKKG(Dap(acetyl))IPRGDTFR-(Pen)-A] (H-KKKG[Dap]IPRGDTFR[Pen]A-OH; linker 5-14 via X1) | A (The residual rate of the cyclic peptide is 70% or more.) | 
 | > 7.30 | CC[C@H](C)[C@@H]1NC(=O)[C@@H](NC(=O)[C@H](CCCCN)NC(=O)[C@H](CCCCN)NC(=O)[C@@H](N)CCCCN)CCSCC(=O)NCC[C@@H](C(=O)NCC(=O)O)NC(=O)[C@H](CCCNC(=N)N)NC(=O)[C@H](Cc2ccccc2)NC(=O)[C@H](CC(N)=O)NC(=O)[C@H](CC(=O)O)NC(=O)CNC(=O)[C@H](CCCNC(=N)N)NC(=O)[C@@H]2CCCN2C1=O [Cyclic peptide 4, KKK-(Hcy)-IPRGDNFR(Dab(acetyl))G] (H-KKK[hCys]IPRGDNFR[Dab]G-OH; linker 4-13 via X2) |  | A (The residual rate of the cyclic peptide is 70% or more.)
 | 7.00 to 7.30 | N=C(N)NCCC[C@@H]1NC(=O)[C@H](Cc2ccc(O)cc2)NC(=O)[C@H](CC(N)=O)NC(=O)[C@H](CC(=O)O)NC(=O)CNC(=O)[C@H](CCCNC(=N)N)NC(=O)[C@@H]2CCCN2C(=O)[C@H](CCC(=O)O)NC(=O)[C@@H](NC(=O)[C@H](CC(=O)O)NC(=O)[C@H](CCCCN)NC(=O)[C@H](CCCCN)NC(=O)[C@@H](N)CCCCN)CCSCC(=O)NCC[C@@H](C(=O)N[C@@H](CC(=O)O)C(=O)O)NC1=O [Cyclic peptide 38, KKKD-(Hcy)-EPRGDNYR(Dab(acetyl))D] (H-KKKD[hCys]EPRGDNYR[Dab]D-OH; linker 5-14 via X2) |  | A (The residual rate of the cyclic peptide is 70% or more.)

Continued, compound first:

SMILES | pKd (human integrin αvβ5; [2]) | pKd (human integrin αvβ5; [3]) | Stability (molecule stability, residual rate of the cyclic peptide rank) [1] | Performance evaluation: Stability (residual rate of cyclic peptide after alkali treatment) [1]
C[C@H](NC(=O)[C@H](CCCCN)NC(=O)[C@H](CCCCN)NC(=O)[C@@H](N)CCCCN)C(=O)N[C@H]1CNC(=O)CSCC[C@@H](C(N)=O)NC(=O)[C@H](CCCNC(=N)N)NC(=O)[C@H](Cc2ccc(O)cc2)NC(=O)[C@H](CC(N)=O)NC(=O)[C@H](CC(=O)O)NC(=O)CNC(=O)[C@H](CCCNC(=N)N)NC(=O)[C@@H]2CCCN2C(=O)[C@H](CCC(=O)O)NC1=O [Cyclic peptide 53, KKKA(Dap(acetyl))EPRGDNYR-(Hcy)] (H-KKKA[Dap]EPRGDNYR[hCys]-NH2; linker 5-14 via X1) |  | 7.00 to 7.30 |  | B (The residual rate of the cyclic peptide is 50% or more and less than 70%.)
CC(C)[C@@H]1NC(=O)[C@@H](NC(=O)[C@H](CCCCN)NC(=O)[C@H](CCCCN)NC(=O)[C@@H](N)CCCCN)CCNC(=O)CSC[C@@H](C(=O)O)NC(=O)[C@H](Cc2ccccc2)NC(=O)[C@H](CC(N)=O)NC(=O)[C@H](CC(=O)O)NC(=O)CNC(=O)[C@H](CCCNC(=N)N)NC(=O)[C@@H]2CCCN2C1=O [Cyclic peptide 143, KKK(Dab(acetyl))VPRGDNF(C)] (H-KKK[Dab]VPRGDNFC-OH; linker 4-12 via X1) | > 7.30 |  | C (The residual rate of the cyclic peptide is 30% or more and less than 50%.) | 
CC[C@H](C)[C@@H]1NC(=O)[C@@H](NC(=O)CNC(=O)[C@H](CCCCN)NC(=O)[C@H](CCCCN)NC(=O)[C@@H](N)CCCCN)CCSCC(=O)NCC[C@@H](C(=O)N[C@@H](C)C(=O)O)NC(=O)[C@H](CCCNC(=N)N)NC(=O)[C@H](Cc2ccccc2)NC(=O)[C@H]([C@@H](C)O)NC(=O)[C@H](CC(=O)O)NC(=O)CNC(=O)[C@H](CCCNC(=N)N)NC(=O)[C@@H]2CCCN2C1=O [Cyclic peptide 54, KKKG-(Hcy)-IPRGDTFR(Dab(acetyl))A] (H-KKKG[hCys]IPRGDTFR[Dab]A-OH; linker 5-14 via X2) |  | > 7.30 |  | A (The residual rate of the cyclic peptide is 70% or more.)
CC(C)[C@@H]1NC(=O)[C@@H](NC(=O)[C@H](CCCCN)NC(=O)[C@H](CCCCN)NC(=O)[C@@H](N)CCCCN)CCSCC(=O)NCC[C@@H](C(=O)O)NC(=O)[C@H](C)NC(=O)[C@H](Cc2ccccc2)NC(=O)[C@H](CO)NC(=O)[C@H](CC(=O)O)NC(=O)CNC(=O)[C@H](CCCNC(=N)N)NC(=O)[C@@H]2CCCN2C1=O [Cyclic peptide 102, KKK-(Hcy)-VPRGDSFA(Dab(acetyl))] (H-KKK[hCys]VPRGDSFA[Dab]-OH; linker 4-13 via X2) | > 7.30 |  | A (The residual rate of the cyclic peptide is 70% or more.) | 
CC(C)[C@@H]1NC(=O)[C@@H](NC(=O)[C@H](CCCCN)NC(=O)[C@H](CCCCN)NC(=O)[C@@H](N)CCCCN)CCSCC(=O)NCC[C@@H](C(=O)N[C@@H](C)C(=O)O)NC(=O)[C@H](C)NC(=O)[C@H](Cc2ccccc2)NC(=O)[C@H]([C@@H](C)O)NC(=O)[C@H](CC(=O)O)NC(=O)CNC(=O)[C@H](CCCNC(=N)N)NC(=O)[C@@H]2CCCN2C1=O [Cyclic peptide 165, KKK-(Hcy)-VPRGDTFA(Dab(acetyl))A] (H-KKK[hCys]VPRGDTFA[Dab]A-OH; linker 4-13 via X2) | > 7.30 |  | A (The residual rate of the cyclic peptide is 70% or more.) | 
C[C@H](NC(=O)[C@@H]1CCNC(=O)CSCC[C@H](NC(=O)CNC(=O)[C@H](CCCCN)NC(=O)[C@H](CCCCN)NC(=O)[C@@H](N)CCCCN)C(=O)N[C@@H](CCC(=O)O)C(=O)N2CCC[C@H]2C(=O)N[C@@H](CCCNC(=N)N)C(=O)NCC(=O)N[C@@H](CC(=O)O)C(=O)N[C@@H]([C@@H](C)O)C(=O)N[C@@H](Cc2ccccc2)C(=O)N[C@@H](CCCNC(=N)N)C(=O)N1)C(=O)O [Cyclic peptide 69, KKKG-(Hcy)-EPRGDTFR(Dab(acetyl))A] (H-KKKG[hCys]EPRGDTFR[Dab]A-OH; linker 5-14 via X2) |  | > 7.30 |  | A (The residual rate of the cyclic peptide is 70% or more.)
